The record followed here is patent US20190308987A1, “DUAL MODULATORS OF BOTH MU AND KAPPA OPIOID RECEPTORS” (priority 2016, published 2019).

For test [1], the target named is T1, kappa opioid receptor (KOR) (Homo sapiens, UniProt P41145).
T1 construct: expressed in transfected cells; host or cells: CHO cells (membranes)
Description: Competitive radioligand binding, KOR ([3H]nor-BNI). How it is done:
(§1) The details of the Radioligand Binding and Functional Studies that were used were described previously.^19 Chinese hamster ovarian (CHO) cell lines were used as monoclonal opioid receptor expressing cells. The μ, δ, and κ opioid receptors were labeled with [^3H]naloxone, ^3H-naltrindole ([^3H]NTI) and ^3H-nor-Binaltorphimine ([^3H]norBNI). The opioid receptor expressing cell membranes were incubated with the radioligands at different concentrations of the drug under investigation at 30° C. for 1 h. With the absence and presence of 10 μM naltrexone, specific binding was got as the difference in binding obtained. The specific binding of the drugs to the radioligand was calculated from data using linear regression analysis of Hill plots.
(§2) All samples were assayed in triplicate and repeated at least twice for a total of 3 independent determinations. Results were reported as mean values±SEM. Concentration-effect curves were fit by nonlinear regression to a one-site binding model, using GraphPad Prism software, to determine EC50 and Emax values. IC50 values were obtained from Hill plots and analyzed by linear regression using Microsoft Excel software. Binding Ki values were determined from IC50 values using the Cheng-Prusoff equation: Ki=IC50/l+([L]/KD), where [L] is the concentration of […] and KD is the KD of the radioligand.

The subject of test [2] is intestinal transit. Kind of test: Charcoal meal test for gastrointestinal transit. The class given is in vivo, mice. How it is done: Forty-eight hours before testing, mice were placed in cages with raised mesh wire to suspend them above their bedding and prevent ingestion of feces or bedding. The animals were habituated for 24 h in the presence of food and water and then fasted for 24 h with free access to water as previously reported.^24 This time frame was chosen to deplete the intestine and colon of any feces. To maintain caloric intake and to avoid hypoglycemia, mice had access to a sugar water solution consisting of a final concentration of 5% dextrose for the first 8 h of the fasting period. […] At 30 min after the administration of the charcoal meal, the mice were euthanized by cervical dislocation, and the small intestine from the jejunum to the cecum was dissected and placed in cold saline to stop peristalsis. The distance traveled by the leading edge of the charcoal meal was measured relative to the total length of the small intestine, and the percentage of intestinal transit for each animal was calculated as percentage transit (charcoal distance)/(small intestinal length)×100. This is referred to as intestinal transit in the text.

For test [3], the system named is visceral pain (abdominal stretches). Kind of test: Acetic acid induced writhing assay. It is filed as in vivo, Swiss Webster mice. How it is done: To determine whether BNAP provides KOR mediated analgesia acetic acid-induced abdominal stretches were counted in mice. Swiss Webster mice were allowed to acclimate in individual testing cages for at least 10 min. Following the acclimation period the vehicle or BNAP was administered via s.c injection at the specified dose. After waiting for 10 min the mice were injected intraperitoneally with 10 mL/kg 0.6% (wt/vol) acetic acid and returned to their observation chambers. After the first 3 min, the number of stretches and abdominal contractions were counted for 15 min. All values shown for abdominal stretching experiments represent separate groups of mice (n=4-8) as each animal was tested only once and euthanized immediately after testing.
In order to confirm the involvement of the KOR in the analgesia produced by BNAP in the Acetic Acid Induced Writhing test, this test was performed in the presence of the KOR-specific antagonist nor-Binaltorphimine 2HCl (nor-BNI). According to previous literature, nor-BNI antagonist activity reaches optimal selectivity and efficacy in the writhing test at 24 hours post administration.^27, 28 These animals were injected sub-cutaneously with either 10 mg/kg nor-BNI or saline 24 hours prior to initiation of the writhing test. The writhing test was then performed as described above (n=5-6).
A general note: Writhing tests count abdominal constrictions after an irritant is injected.

Test [4] deals with T2, KOR (Homo sapiens, UniProt P41145).
T2 construct: expressed in transfected cells; host or cells: CHO cells (membranes)
Kind of test: [35S]GTPγS-binding assay, KOR-expressing CHO cell membranes. The class given is biochemical. How it is done:
[^35S]-GTPγS-Binding Assays using DOR- or KOR-Expressing CHO Cell Lines: Cell membranes (10 μg protein) were incubated with 10 μM GDP and 0.1 nM [^35S]-GTPγS in assay buffer in the presence and absence of varying concentrations of BNAP, 3 μM SNC80 (standard full agonist at DOR) or 3 μM U50,488H (standard full agonist at KOR) for 90 min at 30° C. Nonspecific binding was determined with 10 μM unlabeled GTPγS. The reaction was terminated and bound radioactivity determined as described above and previously.^9
as §2

Test [5] has as its system colonic motility. Kind of test: Colonic bead expulsion assay. It is filed as in vivo, mice. How it is done:
Mice were habituated and fasted as described above for the gastrointestinal transit analysis. […] At 20 min post-injection, animals were anesthetized with isoflurane (1-2 min) to insert a single 2-mm glass bead into the distal colon at a distance of 3 cm from the anus. Bead insertion was accomplished using a glass rod with a fire-polished end to avoid tissue damage and marked at 3 cm.^25 After bead insertion, mice were placed in individual cages and the time to bead expulsion was monitored. Animals were monitored for a maximum of 2 h unless bead expulsion occurred sooner.

Test [6] deals with mouse proximal colon circular muscle. Description: Colon circular muscle isometric tension recordings, proximal colon. How it is done: Mice were euthanized by cervical dislocation. The colon was dissected, flushed of its contents, and trimmed of mesentery. […] The tissues, 0.5 cm in length, were suspended vertically along the axis of the circular muscle with a metal triangle tied to a hook under 1 g of passive tension in 15 mL siliconized organ baths.
Data are presented as the mean±S.E.M, values of P≤0.05 were considered significant.

The target in test [7] is T3, mu opioid receptor (MOR) (Mus musculus, UniProt P42866).
T3 construct: expressed in transfected cells; host or cells: CHO cells (membranes)
Description: Competitive radioligand binding, MOR ([3H]naloxone). The conditions noted are these: mean ± SEM of three experiments. How it is done: as §1, §2

Test [8] deals with guinea pig ileum Longitudinal Muscle Myenteric Plexus (LMMP). Kind of test: Electrical field stimulated contractions in LMMP strips. How it is done:
Male albino guinea pigs (350-450 g) were euthanized by asphyxiation with CO2. A segment of ileum was removed and placed in a dissection bath filled with pre-oxygenated Krebs' solution (118 mM NaCl, 4.6 mM KCl, 1.3 mM NaH2PO4, 1.2 mM MgSO4, 25 mM NaHCO3, 11 mM glucose, and 2.5 mM CaCl2). Longitudinal Muscle Myenteric Plexus (LMMP) strips were prepared as previously described.^26 Electrical field stimulation (EFS) (50 V, 7.5 Hz, unless stated otherwise) was applied through concentric electrodes over longitudinal muscle or L-type stimulating electrodes over circular muscle strips to produce neurogenic contractions/relaxations. Drugs were added in single or cumulative doses depending on the assay to determine their inhibitory effects on the neurogenic responses.

“Also recorded” adds a separate entry of the source.

A word on the Ki: it is a dissociation constant, usually derived from enzyme kinetics or from competition with a known ligand. What is called EC50 is the concentration giving half of the maximal effect. A lower EC50 goes with an effect from little substance. In the case of `O=C(N[C@@H]1CC[C@@]2(O)[C@H]3Cc4ccc(O)c5c4[C@@]2(CCN3CC2CC2)C1O5)c1cc[n+](Cc2ccccc2)cc1` (stereo partly drawn) [BNAP], the Ki is 3.46 ± 0.05 nM in test [1] (KOR, [3H]nor-BNI, read-out: Ki (nM) ± SEM) and 0.76 ± 0.09 nM in test [7]. Further, the “Selectivity (κ/μ)” value in test [1] (ratio of Ki KOR/MOR) turned out to be 4.6. Also, the “reduction of intestinal motility” value in test [2] (charcoal gavage, compound alone) is recorded as 1.5 fold. In addition, the “reversal of morphine induced inhibition of intestinal motility” value in test [2] (mice treated acutely with morphine) was “unable to reverse morphine induced inhibition of intestinal motility”. In test [3] (10 mg/kg nor-BNI s.c. 24 h before, morphine pelleted animals), the “analgesia in presence of nor-BNI” value is “effectively blocked the analgesia produced by BNAP”. In addition, the “active concentration in hypernociceptive model” value in test [3] (mice chronically treated with 75 mg morphine pellet) was “active at three fold lower concentration; also recorded: active at concentrations three-fold lower”. The number of writhes entry in test [3] (s.c., naive mice) is listed as “dose dependently reduced the number of writhes”. For the same compound, in test [4] (35S-GTP[γS]), the half-maximal effective concentration (EC50) was determined as 2.9 ± 1.1 nM. Besides, the “% max of agonist” value in test [4] (Emax relative to full agonist U50,488H) came out at 45.9±1.7%. In test [5] (BNAP alone 10 mg/kg, naive mice 17 min), this compound registered a bead expulsion time of 43 min. For the same compound, the “antagonism of morphine's effect on bead expulsion” value in test [5] (BNAP concurrently or 5 or 15 min before morphine) is “no significant antagonism of morphine's effects was observed”. Further, in test [6] (1 nM antagonist, proximal colon), the “inhibition of morphine-induced contractions” value is given as “neither NAP nor BNAP showed significant inhibition of morphine-induced contractions”. The “morphine pD2 in presence of antagonist” value in test [6] (10 nM antagonist, proximal colon (naive 6.8)) came to 5.9. Moreover, in test [6] (100 nM versus 10 nM antagonist, proximal colon), the “further reduction of morphine pD2” value is on record as “no further reduction of the morphine pD2”. For the same compound, in test [6] (up to 30 μM, proximal colon preparation), the “contractions induced by compound alone” value is given as “Neither BNAP nor NAP alone at concentrations up to 30 μM induced contractions”. Further, in test [8] (Cavia porcellus, guinea pig ileum LMMP, read-out: pIC50 for inhibition of EFS contractions (converted)), the IC50 is 13.8 nM. The “effect of nor-BNI on agonist concentration-response curve” value in test [8] (nor-BNI pretreatment 15 min, dose dependent) is given as “dose dependently shifted the BNAP concentration-response curve to the right”.
